In patent publication US20140296346A1, “Crystalline Forms of (-)-(1R,2R)-3-(3-dimethylamino-1-ethyl-2-methylpropyl)-phenol hydrochloride” (priority 2004, published 2014):
Counter-ions that a name gives are not always drawn.

Key:
[1] = Stability of the crystalline form under ambient conditions
[2] = Variable temperature X-ray powder diffraction experiment; assay type: physicochemical; details: variable temperature XRPD
Procedure: Variable Temperature X-Ray Powder Diffraction Experiment
A variable temperature X-ray powder diffraction experiment was run thereby producing Form B from Form A. Form A converted to Form B from 40-50° C. during the experiment.

Row | Structure (SMILES) | Stability at ambient conditions [1] | Stability under ambient conditions compared with Form B ([1]; relative to Form B) | Temperature at which Form A converted to Form B ([2]; on heating) | Reversibility of the polymorphic conversion ([2]; at lower temperature)
1 | CC[C@@H](c1cccc(O)c1)[C@@H](C)CN(C)C [Form A, (-)-(1R,2R)-3-(3-dimethylamino-1-ethyl-2-methylpropyl)-phenol hydrochloride] | very stable | more stable | 40-50 °C | –
2 | CC[C@@H](c1cccc(O)c1)[C@@H](C)CN(C)C.Cl [Form B, (-)-(1R,2R)-3-(3-dimethylamino-1-ethyl-2-methylpropyl)-phenol hydrochloride] | – | – | – | changing over into Form A at lower temperature
